Laboratory results from ChEMBL document CHEMBL5550165, “Novel quinoxaline analogs as telomeric G-quadruplex ligands exert antitumor effects related to enhanced immunomodulation” (Eur J Med Chem, 2024).
Activity calls are given as the source filed them. The rule behind the calls is not given here.

Tests used:
4T1 [1] = test: Antitumor activity against mouse 4T1 cells implanted in BALB/c mouse assessed as reduction in tumor volume at 10 mg/kg,ip every other day for 14 days; format: functional, organism-based; conditions: time 14.0 day
4T1 [2] = test: Antitumor immunity against mouse 4T1 cells implanted in BALB/c mouse assessed as increase in proportion of CD4+ T cells in tumor at 10 mg/kg,ip every other day for 14 days by immunohistochemistry staining based analysis; format: functional, organism-based; conditions: time 14.0 day
MDA-MB-231 [3] = test: Induction of immunogenic cell death in human MDA-MB-231 cells assessed as increase in CRT expression incubated for 24 hrs by immunofluorescence confocal laser scanning microscopic analysis; format: functional, cell-based
4T1 [4] = test: Antitumor activity against mouse 4T1 cells implanted in BALB/c mouse assessed as increase in survival time at 10 mg/kg,ip every other day for 14 days; format: functional, organism-based; conditions: time 14.0 day
Quadruplex DNA [5] = test: Binding affinity to c-MYC G-quadruplex telomeric DNA (unknown origin) assessed as […] in melting temperature by FRET assay; format: nucleic-acid assay
MDA-MB-231 [6] = test: Induction of DNA damage in human MDA-MB-231 cells assessed as increase in micronuclei frequency in aberrant cell at 4 uM incubated for 24 hrs by DAPI staining based microscopic analysis; format: functional
MDA-MB-231 [7] = test: Antiproliferative activity against human MDA-MB-231 cells assessed as reduction in tumor spheroid volume at 20 to 40 uM incubated for 7 days by propidium iodide staining based fluorescence analysis; format: functional, cell-based; conditions: dose 20-40 µM, time 7.0 day
MDA-MB-231 [8] = test: Induction of cell cycle arrest in human MDA-MB-231 cells assessed as downregulation of Cyclin B1 expression at 1 to 4 uM incubated for 24 hrs by Western blot analysis; format: functional, cell-based; conditions: dose 1-4 µM
MDA-MB-231 [9] = test: Cytotoxicity against human MDA-MB-231 cells incubated for 24 hrs by CCK-8 reagent based spectrophotometric analysis; format: functional, cell-based; conditions: MDA-MB-231, 24 h
MDA-MB-231 [10] = test: Induction of cell cycle arrest in human MDA-MB-231 cells assessed as accumulation of cells at G2/M phase at 1 uM incubated for 24 hrs by RNase/PI staining based flow cytometry (reference value: 11.3 %); format: functional
4T1 [11] = test: Antitumor activity against mouse 4T1 cells implanted in BALB/c mouse assessed as upregulation of cleaved caspase-3 expression in tumor at 10 mg/kg,ip every other day for 14 days by Western blot analysis; format: functional, organism-based; conditions: time 14.0 day
MDA-MB-231 [12] = test: Induction of cell cycle arrest in human MDA-MB-231 cells assessed as accumulation of cells at G2/M phase at 4 uM incubated for 24 hrs by RNase/PI staining based flow cytometry (reference value: 11.3 %); format: functional
MDA-MB-231 [13] = test: Antiproliferative activity against human MDA-MB-231 cells assessed as reduction in tumor spheroid volume at 10 uM incubated for 7 days by propidium iodide staining based fluorescence analysis; format: functional, cell-based; conditions: time 7.0 day
MDA-MB-231 [14] = test: Induction of immunogenic cell death in human MDA-MB-231 cells assessed as increase in HMGB1 release at 1 to 4 uM incubated for 24 hrs by ELISA; format: functional, cell-based; conditions: dose 1-4 µM
MDA-MB-231 [15] = test: Induction of DNA damage in human MDA-MB-231 cells assessed as increase in tail moment at 4 uM incubated for 24 hrs by electrophoresis assay; format: functional, cell-based
MDA-MB-231 [16] = test: Induction of DNA damage in human MDA-MB-231 cells assessed as increase in colocalization of TRF2 and gamma-H2AX formation foci in nucleus at 3 uM incubated for 24 hrs by DAPI staining based immunofluorescence analysis; format: functional, cell-based
U2OS = test: Cytotoxicity against human U2OS cells incubated for 24 hrs by CCK-8 reagent based spectrophotometric analysis; format: functional, cell-based
[17] = Toxicity in BALB/c mouse implanted with mouse 4T1 cells assessed as histopathological change in spleen at 10 mg/kg,ip every other day for 14 days by hematoxylin and eosin staining analysis; format: organism-based; conditions: in vivo, 336 h, time 14 day
4T1 [18] = test: Antitumor immunity against mouse 4T1 cells implanted in BALB/c mouse assessed as increase in proportion of CD8+ T cells in tumor at 10 mg/kg,ip every other day for 14 days by flow cytometry; format: functional, organism-based; conditions: time 14.0 day
MDA-MB-231 [19] = test: Induction of DNA damage in human MDA-MB-231 cells assessed as upregulation of CHK2 phosphorylation incubated for 24 hrs by Western blot analysis; format: functional, cell-based
[20] = Toxicity in BALB/c mouse implanted with mouse 4T1 cells assessed as histopathological change in heart at 10 mg/kg,ip every other day for 14 days by hematoxylin and eosin staining analysis; format: organism-based; conditions: in vivo, 336 h, time 14 day
MDA-MB-231 [21] = test: Induction of DNA damage in human MDA-MB-231 cells assessed as upregulation of gamma-H2AX expression at 1 to 4 uM incubated for 24 hrs by Western blot analysis; format: functional, cell-based; conditions: dose 1-4 µM
MDA-MB-231 [22] = test: Induction of DNA damage in human MDA-MB-231 cells assessed as upregulation of ATM phosphorylation incubated for 24 hrs by Western blot analysis; format: functional, cell-based
[23] = Toxicity in BALB/c mouse implanted with mouse 4T1 cells assessed as histopathological change in lung at 10 mg/kg,ip every other day for 14 days by hematoxylin and eosin staining analysis; format: organism-based; conditions: in vivo, 336 h, time 14 day
Quadruplex DNA [24] = test: Stabilization of G-quadruplex telomeric DNA in human MDA-MB-231 cells assessed as R-loop formation in mitochondria by measuring increase in S9.6 intensity at 3 uM incubated for 24 hrs by DAPI staining based immunofluorescence microscopic analysis
4T1 [25] = test: Cytotoxicity against mouse 4T1 cells incubated for 24 hrs by CCK-8 reagent based spectrophotometric analysis; format: functional, cell-based; conditions: 4T1, 24 h
Quadruplex DNA [26] = test: Binding affinity to G-quadruplex telomeric DNA (unknown origin) assessed as melting temperature by CD spectrophotometric analysis; format: nucleic-acid assay
MDA-MB-231 [27] = test: Induction of apoptosis in human MDA-MB-231 cells assessed as upregulation of cleaved caspase-3 expression at 1 to 4 uM incubated for 24 hrs by Western blot analysis; format: functional, cell-based; conditions: dose 1-4 µM
MDA-MB-231 [28] = test: Induction of DNA damage in human MDA-MB-231 cells assessed as upregulation of CHK2 phosphorylation at 4 uM by Western blot analysis; format: functional, cell-based; conditions: TDE = time-dependent effect
Quadruplex DNA [29] = test: Binding affinity to G-quadruplex telomeric DNA (unknown origin) assessed as thermal shift at 10 uM by UV-Visible spectrophotometric analysis; format: nucleic-acid assay
4T1 [30] = test: Antitumor immunity against mouse 4T1 cells implanted in BALB/c mouse assessed as increase in proportion of CD8+ T cells in spleen at 10 mg/kg,ip every other day for 14 days by flow cytometry; format: functional, organism-based; conditions: time 14.0 day
Quadruplex DNA [31] = test: Stabilization of G-quadruplex telomeric DNA in human MDA-MB-231 cells assessed as increase in colocalization of BG4 and TRF2 formation foci at 3 uM incubated for 24 hrs by DAPI staining based immunofluorescence microscopic analysis; format: cell-based
Quadruplex DNA [32] = test: Stabilization of G-quadruplex telomeric DNA in human MDA-MB-231 cells assessed as increase in S9.6-positive cell nuclei at 3 uM incubated for 24 hrs by DAPI staining based immunofluorescence microscopic analysis
Quadruplex DNA [33] = test: Stabilization of G-quadruplex 5-FAM-telomeric24 DNA-TAMRA-3 (unknown origin) assessed as change in melting temperature incubated for 2 hrs by FRET assay; format: nucleic-acid assay
MDA-MB-231 [34] = test: Induction of cell cycle arrest in human MDA-MB-231 cells assessed as accumulation of cells at S phase at 1 uM incubated for 24 hrs by RNase/PI staining based flow cytometry (reference value: 6.3 %); format: functional

For `CN(C)CCN(C)c1ccc(-c2nc3ccc(C(F)(F)F)cc3nc2-c2ccc(N(C)CCN(C)C)cc2)cc1`, which Activity (4T1 [1]) is on record?
Its Activity is “Active”.

And the Activity (4T1 [2])?
Its Activity is “Active”.

What about the Activity (MDA-MB-231 [3]) of the same compound?
Its Activity is “Dose-Dependent Effect”.

And the Activity (4T1 [4])?
Its Activity is “Active”.

What about the Activity (Quadruplex DNA [5]) of the same compound?
Its Activity is “Active”.

And the Activity (MDA-MB-231 [6])?
The Activity was “Active”.

And the Activity (MDA-MB-231 [7])?
The Activity was “Active”.

And the Activity (MDA-MB-231 [8])?
Its Activity is “Active”.

What about the IC50 (MDA-MB-231 [9]) of the same compound?
The IC50 was 1700 nM.

What about the Activity (MDA-MB-231 [10]) of the same compound?
Its Activity is 11.4%.

And the Activity (4T1 [11])?
The Activity was “Active”.

What about the Activity (MDA-MB-231 [12]) of the same compound?
The Activity was 20.9%.

And the Activity (MDA-MB-231 [13])?
Its Activity is “inactive”.

What about the Activity (MDA-MB-231 [14]) of the same compound?
The Activity was “Active”.

And the Activity (MDA-MB-231 [15])?
The Activity was “Active”.

What about the Activity (MDA-MB-231 [16]) of the same compound?
The Activity was “Active”.

What about the IC50 (U2OS) of the same compound?
The IC50 was 3000 nM.

And the Activity [17]?
The Activity was “Non-Toxic”.

What about the Activity (4T1 [18]) of the same compound?
The Activity was “Active”.

And the Activity (MDA-MB-231 [19])?
Its Activity is “Dose-Dependent Effect”.

What about the Activity [20] of the same compound?
The Activity was “Non-Toxic”.

And the Activity (MDA-MB-231 [21])?
Its Activity is “Active”.

What about the Activity (MDA-MB-231 [22]) of the same compound?
Its Activity is “Dose-Dependent Effect”.

What about the Activity [23] of the same compound?
The Activity was “Non-Toxic”.

And the Activity (Quadruplex DNA [24])?
Its Activity is “Active”.

What about the IC50 (4T1 [25]) of the same compound?
The IC50 was 4600 nM.

What about the Tm (Quadruplex DNA [26]) of the same compound?
Its Tm is 66 °C.

And the Activity (MDA-MB-231 [27])?
Its Activity is “Active”.

And the Activity (MDA-MB-231 [28])?
The Activity was “Tde”.

What about the Activity (Quadruplex DNA [29]) of the same compound?
Its Activity is “Active”.

And the Activity (4T1 [30])?
Its Activity is “Active”.

What about the Activity (Quadruplex DNA [31]) of the same compound?
Its Activity is “Active”.

What about the Activity (Quadruplex DNA [32]) of the same compound?
The Activity was “Active”.

What about the ΔTm (Quadruplex DNA [33]) of the same compound?
Its ΔTm is 6.1 °C.

What about the Activity (MDA-MB-231 [34]) of the same compound?
The Activity was 6.4%.
